Test results reported in paper PMC12198407, “Preclinical and first-in-human of purinostat mesylate, a novel selective HDAC I/IIb inhibitor, in relapsed/refractory multiple myeloma and lymphoma” (Signal Transduction and Targeted Therapy, 2025).
Where two headings read alike, the source gives them in different places.

Tests used:
[1] = target: human ether-à-go-go-related gene (hERG) channel (Homo sapiens, UniProt Q12809); assay: hERG inhibition; assay type: biochemical
[2] = test system: human double-hit lymphoma SUDHL-6; assay: SUDHL-6 subcutaneous tumor model; assay type: in vivo, NOD/SCID mice; details: positive control groups
[3] = test system: mouse B-cell lymphoma; assay: Ighmyc transgenic B-cell lymphoma model, survival; assay type: in vivo, mice; details: positive control groups
[4] = test system: human multiple myeloma RPMI-8226; assay type: in vivo
[5] = test system: HDAC I/IIb; design: method as in PMID 27186676, PMID 31439580; details: range over isoforms; read-out: IC50 against HDAC I/IIb; cited from earlier work
[6] = test system: SUDHL-4; assay: Cell viability CCK8; assay type: cell-based; details: Homo sapiens, SU-DHL-4; SUDHL-4, 72 h; no unit in table; read-out: Antiproliferative activity IC50
Procedure: (§1) PM, panobinostat, Pom and DXM were dissolved in DMSO and stored at -20°C freezer. Cells were seeded at a density of 1.0-3.0 × 10^4 cells/well/100 μL in 96-well plates. After overnight incubation, cells were treated with the drug-containing culture medium for 24, 48, or 72 hours, and cell viability was measured using CCK8 (Oriscience, Chengdu, China) at the indicated time points with Biotek Cytation 3 at a wavelength of 450 nm. The IC50 values were calculated using GraphPad Prism 9.4.1, and Calcusyn 2.0 software was employed to calculate the CI values.

[7] = test system: TMD-8; assay: Cell viability CCK8; assay type: cell-based; details: Homo sapiens, TMD8; TMD-8, 72 h; no unit in table; read-out: Antiproliferative activity IC50
Procedure: as §1

[8] = test system: OPM2; assay: Cell viability CCK8; assay type: cell-based; details: Homo sapiens, OPM-2; OPM2, 72 h; no unit in table; read-out: Antiproliferative activity IC50
Procedure: as §1

[9] = test system: Raji; assay: Cell viability CCK8; assay type: cell-based; details: Homo sapiens, 72 h, no unit in table, read-out: Antiproliferative activity IC50
Procedure: as §1

[10] = test system: Daudi; assay: Cell viability CCK8; assay type: cell-based; details: Homo sapiens, 72 h, no unit in table, read-out: Antiproliferative activity IC50
Procedure: as §1

[11] = test system: Karpas299; assay: Cell viability CCK8; assay type: cell-based; details: Homo sapiens, KARPAS-299; Karpas299, 72 h; no unit in table; read-out: Antiproliferative activity IC50
Procedure: as §1

[12] = test system: Ramos; assay: Cell viability CCK8; assay type: cell-based; details: Homo sapiens, 72 h, no unit in table, read-out: Antiproliferative activity IC50
Procedure: as §1

[13] = test system: NKYS; assay: Cell viability CCK8; assay type: cell-based; details: Homo sapiens, 72 h, no unit in table, read-out: Antiproliferative activity IC50
Procedure: as §1

[14] = test system: KMS-11; assay: Cell viability CCK8; assay type: cell-based; details: Homo sapiens; KMS-11, 72 h; no unit in table; read-out: Antiproliferative activity IC50
Procedure: as §1

[15] = test system: AMO1; assay: Cell viability CCK8; assay type: cell-based; details: Homo sapiens; AMO1, 72 h; no unit in table; read-out: Antiproliferative activity IC50
Procedure: as §1

[16] = test system: ARD; assay: Cell viability CCK8; assay type: cell-based; details: Homo sapiens, 72 h, no unit in table, read-out: Antiproliferative activity IC50
Procedure: as §1

[17] = test system: MM1R; assay: Cell viability CCK8; assay type: cell-based; details: Homo sapiens, MM.1R, 72 h, no unit in table, read-out: Antiproliferative activity IC50
Procedure: as §1

[18] = test system: RPMI-8226R; assay: Cell viability CCK8; assay type: cell-based; details: Homo sapiens, 72 h, no unit in table, read-out: Antiproliferative activity IC50
Procedure: as §1

[19] = test system: RL; assay: Cell viability CCK8; assay type: cell-based; details: Homo sapiens, 72 h, no unit in table, read-out: Antiproliferative activity IC50
Procedure: as §1

[20] = test system: MM1S; assay: Cell viability CCK8; assay type: cell-based; details: Homo sapiens, MM1.S, 72 h, no unit in table (b9: nM), read-out: Antiproliferative activity IC50
Procedure: as §1

[21] = test system: RPMI-8226; assay: Cell viability CCK8; assay type: cell-based; details: Homo sapiens; RPMI-8226, 72 h; no unit in table; read-out: Antiproliferative activity IC50
Procedure: as §1

[22] = test system: MM1S xenograft; assay: MM1S xenograft mouse model; assay type: in vivo, NOD-SCID mice
[23] = test system: BCR-ABL positive B-ALL PDX; assay: PDX model of clinical B-ALL patient; assay type: in vivo, NOD/SCID mice; details: positive control
From the text: A clinical sample from a B-ALL patient was obtained, characterized by BCR-ABL positivity and relapse after first-line treatment.

[24] = test system: r/r MM; details: cited from earlier work
[25] = test system: HDAC IIa/IV; design: method as in PMID 27186676, PMID 31439580; details: range over isoforms; read-out: IC50 against HDAC IIa/IV; cited from earlier work
[26] = test system: diffuse large B-cell lymphoma (DLBCL) cells from patient C; assay: Cell apoptosis analysis, primary cells; assay type: cell-based, human; details: 5 nM, 48 h
Procedure: (§2) CD138^+, CD38^+, or CD20^+ primary cells were obtained from plasma cell leukemia patients and DLBCL patients who had relapsed after multiple drug therapies. These patient samples were sourced from West China Hospital and had been approved by the clinical ethics committee of West China Hospital of Sichuan University (Chengdu, China). The clinical information of these patients was summarized in Supplementary Table 2. The patient primary cells were cultured in 6-well plates at a density of 1×10^6 cells/mL, and treated with control, PM, panobinostat, Pom and DXM at indicated concentrations for 48 hours. CD138, CD38, and CD20 monoclonal antibodies, Annexin V-APC and 7AAD apoptosis detection kits were used following the manufacturer’s instructions. The apoptosis cells were analyzed by flow cytometry (Thermo, AttuneTMNxT).

[27] = test system: primary MM cells from relapsed patients A and B; assay: Cell apoptosis analysis, primary cells; assay type: cell-based, human; details: 5 nM, 48 h
Procedure: as §2

[28] = Metabolite profiling in plasma, bile, urine, feces; assay type: in vivo, SD rats; details: for share of plasma AUC0-96h: [14C] 3 mg/100 µCi/kg i.v.; for amount in urine, % of administered dose / amount in feces, % of administered dose: 0 to 168 hours; for amount in bile, % of administered dose: 0 to 72 hours
Procedure: Following a single intravenous administration of [14C] Purinostat Mesylate at a dose of 3 mg/100 µCi/kg in male and female rats, a total of 14 metabolites were identified, in addition to the parent compound. These were designated as M382, M396, M474, M475, M490, M516, M517, M532, M546, M548, M558, M666, M708a, and M708b. Among these, M382 is an acetylated product of the parent drug after N-dealkylation, M396 is a carboxylic acid derivative of M382, M474 is a reduction product of the parent drug, M475 is a hydroxylated product derived from the amino conversion of M474, M490 is a mono-oxidation product of M474, M516 is an acetylated product of M474, M517 is a hydroxylated product derived from the amino conversion of M516, M532 is an acetylated product of the parent drug, M546 is a methylated product of M532, M548 is a dioxidation product of M516, M558 is a glucuronic acid conjugate of M382, M666 is a glucuronic acid conjugate of the parent drug, M708a is a mono-oxidation glucuronic acid conjugate of M516, and M708b is a glucuronic acid conjugate of M532.

[29] = test system: r/r DLBCL; details: cited from earlier work
[30] = test system: 89 kinases; assay: Kinase panel; assay type: biochemical; details: 1 μM
Procedure: The prototype drug Purinostat was tested for its inhibitory activity against 89 kinases that are strongly associated with tumors.

[31] = positive controls and combinations (PM 5 mg/kg in combinations)

Sequence of human ether-à-go-go-related gene (hERG) channel (Q12809 whole entry): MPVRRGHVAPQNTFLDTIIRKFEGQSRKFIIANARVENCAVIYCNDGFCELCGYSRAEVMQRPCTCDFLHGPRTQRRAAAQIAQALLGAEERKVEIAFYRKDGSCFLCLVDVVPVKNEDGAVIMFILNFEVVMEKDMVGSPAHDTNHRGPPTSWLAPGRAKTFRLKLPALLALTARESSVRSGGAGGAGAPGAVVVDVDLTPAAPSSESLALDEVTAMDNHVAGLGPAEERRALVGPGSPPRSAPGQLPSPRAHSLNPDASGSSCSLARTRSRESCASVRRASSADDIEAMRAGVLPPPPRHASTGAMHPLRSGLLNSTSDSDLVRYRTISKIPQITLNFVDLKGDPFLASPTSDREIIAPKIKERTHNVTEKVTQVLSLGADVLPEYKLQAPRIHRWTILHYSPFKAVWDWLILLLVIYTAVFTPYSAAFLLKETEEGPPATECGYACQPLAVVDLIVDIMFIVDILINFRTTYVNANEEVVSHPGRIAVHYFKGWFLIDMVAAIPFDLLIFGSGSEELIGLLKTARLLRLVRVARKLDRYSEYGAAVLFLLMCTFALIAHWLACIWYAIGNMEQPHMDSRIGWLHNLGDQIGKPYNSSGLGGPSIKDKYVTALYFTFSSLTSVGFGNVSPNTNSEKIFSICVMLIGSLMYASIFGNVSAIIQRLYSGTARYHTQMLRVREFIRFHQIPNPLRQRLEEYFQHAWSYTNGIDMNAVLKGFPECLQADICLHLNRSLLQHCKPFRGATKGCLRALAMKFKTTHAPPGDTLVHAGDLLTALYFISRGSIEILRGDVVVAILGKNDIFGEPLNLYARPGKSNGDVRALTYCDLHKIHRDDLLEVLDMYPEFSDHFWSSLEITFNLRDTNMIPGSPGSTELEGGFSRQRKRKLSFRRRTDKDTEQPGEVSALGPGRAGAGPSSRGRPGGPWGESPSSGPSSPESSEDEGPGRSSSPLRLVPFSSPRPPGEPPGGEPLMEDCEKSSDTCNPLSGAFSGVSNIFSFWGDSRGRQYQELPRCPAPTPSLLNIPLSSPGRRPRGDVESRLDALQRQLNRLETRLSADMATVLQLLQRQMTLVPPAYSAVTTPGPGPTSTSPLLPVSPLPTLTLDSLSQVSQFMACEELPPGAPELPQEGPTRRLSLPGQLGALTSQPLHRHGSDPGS

SMILES: Cc1[nH]c2ccccc2c1CCNCc1ccc(/C=C/C(=O)NO)cc1 [panobinostat, reference compound]
- IC50 [1]: 3500 nM
- T/C [2]: 92.55±13.13%
- tumor inhibition rate [2]: 12.92%
- median survival time [3]: 20 days
- T/C [4, 31]: 35.1%
- tumor inhibition rate [4, 31]: 59.79%
- median survival time ([4]; satellite groups, PM 5 mg/kg alone or combined, control regimens): 52.5 days
- IC50 [5]: 2.1 to 277 nM
- IC50 [6]: 6.72 ± 0.49 nM
- IC50 [7]: 9.12 ± 0.25 nM
- IC50 [8]: 4.4 ± 0.27 nM
- IC50 [9]: 5.48 ± 4.81 nM
- IC50 [10]: 6.99 ± 3.9 nM
- IC50 [11]: 4.03 ± 0.2 nM
- IC50 [12]: 5 ± 0.53 nM
- IC50 [13]: 4.81 ± 0.14 nM
- IC50 [14]: 7.94 ± 0.59 nM
- IC50 [15]: 3.45 ± 0.5 nM
- IC50 [16]: 1.82 ± 0.16 nM
- IC50 [17]: 0.87 ± 0.01 nM
- IC50 [18]: 5.56 ± 0.49 nM
- IC50 [19]: 6.43 ± 0.45 nM
- IC50 [20]: 2.87 ± 0.12 nM
- IC50 [21]: 9.3 ± 0.55 nM
- tumor inhibition rate ([22]; 10 mg/kg i.v. three times a week): 49.37%
- relative tumor growth rate T/C ([22]; positive control groups): 45.1%
- tumor inhibition rate ([22]; positive control groups, regimens per Table S9): 49.37%
- median survival time ([22]; satellite group, positive control): 26.5 days
- median survival time [23]: 17 days
- response, monotherapy in r/r MM ([24]; phase II): 1 PR and 1 MR in 38 patients
- IC50 [25]: 2.7 to 531 nM
- apoptosis [26]: 20.49%
- apoptosis ([27]; patient A): 54.5%
- apoptosis ([27]; patient B): 40.1%

SMILES: CC(=O)Nc1ccc(-c2nc(N3CCOCC3)c3nc(CN(C)c4ncc(C(=O)NO)cn4)n(C)c3n2)cc1 [M532]
- share of plasma AUC0-96h ([28]; female rats): 4.71% to 9.05
- amount in urine, % of administered dose ([28]; females): 0.43% to 0.87
- share of plasma AUC0-96h ([28]; male rats): 4.85% to 6.67
- amount in urine, % of administered dose ([28]; males): 1.02% to 1.92

SMILES: O=C(CCCCCCC(=O)Nc1ccccc1)NO [vorinostat]
- response, monotherapy in r/r MM ([24]; phase I): 1 MR in 10 patients
- ORR in r/r DLBCL [29]: 6%

SMILES: CONC(=O)c1cnc(N(C)Cc2nc3c(N4CCOCC4)nc(-c4ccc(NC(C)=O)cc4)nc3n2C)nc1 [M546]
- share of plasma AUC0-96h ([28]; female rats): 4.71% to 9.05
- amount in bile, % of administered dose ([28]; females): 1.16% to 3.30
- amount in feces, % of administered dose ([28]; females): 0.79% to 5.53
- share of plasma AUC0-96h ([28]; male rats): 4.85% to 6.67
- amount in bile, % of administered dose ([28]; males): 0.97% to 4.38
- amount in feces, % of administered dose ([28]; males): 1.27% to 6.00

SMILES: CN(Cc1nc2c(N3CCOCC3)nc(-c3ccc(N)cc3)nc2n1C)c1ncc(C(=O)NO)cn1 [Purinostat]
- inhibitory activity against 89 kinases [30]: no significant inhibitory activity

SMILES: CN(Cc1nc2c(N3CCOCC3)nc(-c3ccc(N)cc3)nc2n1C)c1ncc(C(=O)O)cn1 [M475]
- share of plasma AUC0-96h ([28]; female rats): 4.71% to 9.05
- share of plasma AUC0-96h ([28]; male rats): 4.85% to 6.67

SMILES: O=C(/C=C/c1cccc(S(=O)(=O)Nc2ccccc2)c1)NO [belinostat]
- ORR in r/r DLBCL ([29]; SWOG S0520): 10.5%

SMILES: CC(=O)Nc1ccc(-c2nc(N3CCOCC3)c3nc(CN(C)c4ncc(C(=O)O)cn4)n(C)c3n2)cc1 [M517]
- amount in bile, % of administered dose ([28]; females): 1.16% to 3.30
- amount in feces, % of administered dose ([28]; females): 0.79% to 5.53
- amount in bile, % of administered dose ([28]; males): 0.97% to 4.38
- amount in feces, % of administered dose ([28]; males): 1.27% to 6.00

SMILES: C/C=C1\NC(=O)[C@H]2CSSCC/C=C/[C@H](CC(=O)N[C@H](C(C)C)C(=O)N2)OC(=O)[C@H](C(C)C)NC1=O [romidepsin]
- response, monotherapy in r/r MM ([24]; phase II): 4/12 patients SD

SMILES: CN(Cc1nc2c(N3CCOCC3)nc(-c3ccc(N)cc3)nc2n1C)c1ncc(C(N)=O)cn1 [M474]
- share of plasma AUC0-96h ([28]; female rats): 13.75%
- amount in bile, % of administered dose ([28]; females): 1.16% to 3.30
- amount in feces, % of administered dose ([28]; females): 0.79% to 5.53
- amount in urine, % of administered dose ([28]; females): 0.43% to 0.87
- share of plasma AUC0-96h ([28]; male rats): 13.79%
- amount in bile, % of administered dose ([28]; males): 0.97% to 4.38
- amount in feces, % of administered dose ([28]; males): 1.27% to 6.00
- amount in urine, % of administered dose ([28]; males): 1.02% to 1.92

SMILES: CC(=O)Nc1ccc(-c2nc(N3CCOCC3)c3nc(CN(C)c4ncc(C(N)=O)cn4)n(C)c3n2)cc1 [M516]
- share of plasma AUC0-96h ([28]; female rats): 15.61%
- amount in bile, % of administered dose ([28]; females): 5.77% to 7.49
- amount in feces, % of administered dose ([28]; females): 30.10%
- amount in urine, % of administered dose ([28]; females): 2.35% to 2.49
- share of plasma AUC0-96h ([28]; male rats): 17.42%
- amount in bile, % of administered dose ([28]; males): 4.75% to 8.74
- amount in feces, % of administered dose ([28]; males): 27.70%
- amount in urine, % of administered dose ([28]; males): 0.88% to 3.01
